Key:
human GYS2 = human GYS2 (Homo sapiens (Human), UniProt P54840); assay: GYS2 coupled enzyme assay (PK/LDH); assay type: biochemical; details: recombinant hGYS2/GN1 protein; geometric mean of at least 2 assay runs
From the text: (§1) The GYS2 coupled enzyme assay is a kinetic biochemical assay that indirectly quantifies the rate of glycogen synthesis by coupling the conversion of GYS2 substrate UDP-glucose into UDP with downstream enzymatic reactions. UDP is released from UDP-glucose as glucose monomers are linked into the growing glycogen strand by GYS2. The coupled assay then proceeds with pyruvate kinase utilizing UDP and phospho (enol) pyruvate (PEP) to form pyruvate. Lactate dehydrogenase then converts pyruvate and NADH into lactate and NAD+. Oxidation of NADH to NAD+ can be measured continuously with a plate reader by quantifying the decrease in NADH absorbance at 340 nm over time.
Compounds that inhibit the hGYS2 enzyme and, subsequently, the downstream conversion of NADH to NAD+, were tested using assay ready plates (black, clear bottom 384 well plates) in a final DMSO reaction volume of 2.5% DMSO. The Assay Buffer contained 50 mM Tris pH 7.5, 2 mM MgCl2, and 100 mM KCl. Fresh stocks of BSA at a final concentration of 0.02% and TCEP 1 mM were added before splitting buffer into hGYS2 buffer and substrate buffer. To the hGYS2 buffer, rabbit liver glycogen was added at a final concentration of 0.2% glycogen. Glucose-6-Phosphate was added at 2 mM, recombinant hGYS2/GN1 protein was added at 200 nM to the substrate buffer, phosphoenolpyruvate (PEP) was added at 2 mM, UDP-Glucose was added at 2 mM, NADH was added at 0.6 mM, and Pyruvate Kinase/Lactate Dehydrogenase was added at 20 units/mL. The reaction was initiated by mixing hGYS2 buffer and substrate buffer at a 1:1 ratio. Both buffers were plated using a liquid dispensing device with hGYS2 buffer plated first followed by the substrate buffer. Plates were spun briefly to eliminate air bubbles and are immediately read in continuous mode at an absorbance of 340 nm, for 10 time points in one-minute increments, for a total of 10 minutes. The slope from these 10 time points was normalized to the positive and negative control wells.
(§2) Unless otherwise specified, IC50 values are reported as the geometric mean of at least 2 assay runs on separate days. […] Unless otherwise specified, IC50 values are reported as the geometric mean of at least two assay runs on separate days. Each run represents the average of a technical replicate, where each compound was assayed twice in the same plate.

human GYS1 = human GYS1 (Homo sapiens (Human), UniProt P13807); assay: GYS1 coupled enzyme assay (PK/LDH); assay type: biochemical; details: recombinant hGYS1/GN1 protein; geometric mean of at least 2 assay runs
Chain of human GYS1 (P13807 whole entry): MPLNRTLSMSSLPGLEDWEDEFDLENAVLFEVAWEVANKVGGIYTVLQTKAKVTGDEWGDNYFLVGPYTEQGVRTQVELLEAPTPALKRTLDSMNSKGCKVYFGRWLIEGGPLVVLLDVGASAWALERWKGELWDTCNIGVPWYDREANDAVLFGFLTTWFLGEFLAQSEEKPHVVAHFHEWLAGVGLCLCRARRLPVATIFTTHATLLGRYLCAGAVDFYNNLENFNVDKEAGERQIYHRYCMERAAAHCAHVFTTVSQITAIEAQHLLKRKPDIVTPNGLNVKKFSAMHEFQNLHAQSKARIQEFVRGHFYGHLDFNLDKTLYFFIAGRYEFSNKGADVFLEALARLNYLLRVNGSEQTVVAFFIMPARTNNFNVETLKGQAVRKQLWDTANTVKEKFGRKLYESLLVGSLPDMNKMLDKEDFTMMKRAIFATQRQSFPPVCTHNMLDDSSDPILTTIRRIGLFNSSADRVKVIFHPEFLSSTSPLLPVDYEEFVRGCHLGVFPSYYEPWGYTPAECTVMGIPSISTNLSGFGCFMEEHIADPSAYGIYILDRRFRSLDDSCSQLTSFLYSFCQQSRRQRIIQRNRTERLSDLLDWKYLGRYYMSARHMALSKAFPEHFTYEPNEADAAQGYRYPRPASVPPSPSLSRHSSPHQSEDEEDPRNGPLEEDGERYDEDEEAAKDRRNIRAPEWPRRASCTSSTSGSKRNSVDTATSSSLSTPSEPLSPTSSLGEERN
Chain of human GYS1 (P46976 whole entry partner): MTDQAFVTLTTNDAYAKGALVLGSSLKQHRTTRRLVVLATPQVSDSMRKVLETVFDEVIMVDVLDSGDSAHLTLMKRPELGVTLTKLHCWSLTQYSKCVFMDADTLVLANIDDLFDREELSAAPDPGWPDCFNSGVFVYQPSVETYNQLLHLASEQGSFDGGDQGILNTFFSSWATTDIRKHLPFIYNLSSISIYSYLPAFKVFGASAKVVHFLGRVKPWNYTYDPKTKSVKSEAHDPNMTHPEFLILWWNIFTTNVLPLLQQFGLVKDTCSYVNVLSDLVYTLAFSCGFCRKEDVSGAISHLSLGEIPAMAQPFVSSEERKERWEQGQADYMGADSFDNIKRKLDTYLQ
From the text: as §1, with “GYS1” for “GYS2”, “GYS1.” for “GYS2.”
Compounds that inhibit the hGYS1 enzyme and, subsequently, the downstream conversion of NADH to NAD+, were tested using assay ready plates (black, clear bottom 384 well plates) in a final DMSO reaction volume of 2.5% DMSO. The Assay Buffer contained 50 mM Tris pH 7.5, 2 mM MgCl2, and 100 mM KCl. Fresh stocks of BSA at a final concentration of 0.02% and TCEP at 1 mM were added before splitting buffer into hGYS1 buffer and substrate buffer. To the hGYS1 buffer, rabbit liver glycogen was added at a final concentration of 0.2% glycogen. Glucose-6-Phosphate was added at 1 mM, recombinant hGYS1/GN1 protein was added at 50 nM to the substrate buffer, phosphoenolpyruvate (PEP) was added at 2 mM, UDP-Glucose was added at 0.8 mM, NADH) was added at 0.6 mM, and Pyruvate Kinase/Lactate Dehydrogenase was added at 20 units/mL. The reaction was initiated by mixing hGYS1 buffer and substrate buffer at a 1:1 ratio. Both buffers were plated using a liquid dispensing device with hGYS1 buffer plated first followed by the substrate buffer. Plates were spun briefly to eliminate air bubbles and are immediately read in continuous mode at an absorbance of 340 nm, for 10 time points in one-minute increments, for a total of 10 minutes. The slope from these 10 time points was normalized to the positive and negative control wells.
Unless otherwise specified, IC50 values are reported as the geometric mean of at least 2 assay runs on separate days. Each run represents the average of a technical replicate, where each compound was assayed twice in the same plate.

[1] = target: hGYS1 enzyme, glycogen synthesis in HeLa cells (Homo sapiens (Human), UniProt P13807); assay: GYS1 cell based assay (glycogen synthesis in HeLa cells, Glucose-glo); details: starved HeLa cells, 24 h incubation; geometric mean of at least 2 assay runs; read-out: Cellular IC50
Chain of hGYS1 enzyme, glycogen synthesis in HeLa cells (P13807 whole entry): as the sequence (P13807 whole entry) above
From the text: The GYS1 cell based assay is a bioluminescent assay that quantifies the glucose resulting from glycogen digestion; the quantified glucose is an indirect measure of GYS1 glycogen synthesis. Newly synthesized glycogen is digested using Glucoamylase; the resulting glucose is quantified by using the Glucose-glo assay kit from Promega. Glucose-glo works by coupling glucose oxidation and NADH production with a bioluminescent system that is activated with NADH. Glucose is oxidized by Glucose dehydrogenase and the reaction reduces NAD+ to NADH; NADH activates Reductase which reduces a pro-luciferin Reductase Substrate to luciferin. Luciferin is detected in a luciferase reaction using Ultra-Glo rLuciferase and ATP, and the luminesce produced is proportional to the glucose in the sample. The luminescence is measured as a single point read in a plate reader.
Compounds that inhibit the hGYS1 enzyme and, subsequently, the glycogen synthesis in cells, were tested using assay ready plates (white, clear bottom 384 well plates) in a final DMSO reaction volume of 1% DMSO. Compounds in the assay ready plates were mixed with media with no additives, except for 20 mM glucose prior to cell addition. HeLa cells were starved in media with no additives, except for 1× Glutamax for 24 h. Starved HeLa cells were plated, in a 1:1 ratio to the media in the assay ready plate and incubated for 24 h at 37° C. and 5% CO2. Cells were washed in 1×PBS buffer and lysed in lysis buffer containing 50% 1×PBS and 25% 0.3 N HCl of the final volume in the well or reaction volume; cells were incubated with lysis buffer for 10 minutes and quenched with the remaining 25% of the reaction volume that consisted of 450 mM Tris pH 8.0. Lysates were mixed in a 1:1 ratio with Glucoamylase in 100 mM Sodium Acetate buffer, pH 5.3; the mixture was incubated for 1 h at 37° C. The digested lysate was mixed in a 1:1 ratio with Glucose-glo detection mixture as per vendor recommendations (Luciferase detection buffer, Reductase, Reductase substrate, Glucose dehydrogenase, and NAD) in read-out plates (solid white 384-well plates) and incubated for 1 h at RT. The plates were read using a plate reader with luminescence capabilities. Each compound concentration Relative Luminescence Unit (RLU) was averaged and normalized to the average RLU of the positive and negative controls to obtain a percentage inhibition. The normalized data vs. concentration was plotted; to determine the half-maximal concentration (IC50), the Levenberg-Marquardt algorithm was used to fit a Hill equation to the dose response data.
as §2

Chain of human GYS2 (P54840 whole entry): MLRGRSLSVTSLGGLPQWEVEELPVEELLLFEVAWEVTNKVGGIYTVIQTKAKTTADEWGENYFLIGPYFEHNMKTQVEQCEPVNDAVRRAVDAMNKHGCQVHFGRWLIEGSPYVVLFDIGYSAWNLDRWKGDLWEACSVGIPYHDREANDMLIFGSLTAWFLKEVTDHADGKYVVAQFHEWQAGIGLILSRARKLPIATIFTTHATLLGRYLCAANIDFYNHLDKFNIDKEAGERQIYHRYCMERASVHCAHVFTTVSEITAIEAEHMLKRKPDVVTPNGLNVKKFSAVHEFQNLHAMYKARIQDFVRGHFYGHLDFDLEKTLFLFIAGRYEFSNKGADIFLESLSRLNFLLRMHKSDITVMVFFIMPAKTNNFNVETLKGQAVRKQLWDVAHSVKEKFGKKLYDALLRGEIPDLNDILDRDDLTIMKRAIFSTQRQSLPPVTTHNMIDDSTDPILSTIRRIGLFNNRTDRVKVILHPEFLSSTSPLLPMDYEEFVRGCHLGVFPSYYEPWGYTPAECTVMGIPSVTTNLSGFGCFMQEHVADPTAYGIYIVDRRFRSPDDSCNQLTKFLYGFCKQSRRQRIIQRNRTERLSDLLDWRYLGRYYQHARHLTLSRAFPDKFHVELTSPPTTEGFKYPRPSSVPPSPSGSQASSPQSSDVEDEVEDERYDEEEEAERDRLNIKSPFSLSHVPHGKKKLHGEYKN
Chain of human GYS2 (P46976 whole entry partner): as the sequence (P46976 whole entry partner) above

SMILES	IC50 (human GYS2)	IC50 (human GYS1)	IC50 [1]
CC(C)c1ccc(C(NC(=O)C2CCCC2C(=O)O)c2cccs2)cc1 (single isomer, unassigned) [Compound 43, (1R or 1S,2S or 2R)-2-(((S or R)-(4-isopropylphenyl)(thiophen-2-yl)methyl)carbamoyl)cyclopentane-1-carboxylic acid]	> 250 µM	19.8 µM	
CC(C)c1ccc(C(NC(=O)C2CCCC2C(=O)O)c2cccs2)cc1 (single isomer, unassigned) [Compound 44, (1R or 1S,2S or 2R)-2-(((R or S)-(4-isopropylphenyl)(thiophen-2-yl)methyl)carbamoyl)cyclopentane-1-carboxylic acid]	11.7 µM	12.9 µM	
CC(C)c1ccc(C(NC(=O)C2CCCC2C(=O)O)c2cccs2)cc1 (single isomer, unassigned) [Compound 46, (1S or 1R,2R or 2S)-2-(((S or R)-(4-isopropylphenyl)(thiophen-2-yl)methyl)carbamoyl)cyclopentane-1-carboxylic acid]	> 250 µM	> 99.9 µM	
O=C(O)[C@H]1CCC[C@H]1C(=O)N[C@@H](c1ccccc1)c1ccc(C2CC2)c(F)c1 [Compound 17, (1S,2R)-2-(((S)-(4-cyclopropyl-3-fluorophenyl)(phenyl)methyl)carbamoyl)cyclopentane-1-carboxylic acid]	> 100 µM	1.58 µM	27.3 µM
CC(C)c1ccc([C@@H](NC(=O)[C@@H]2CCC[C@@H]2C(=O)O)c2ccccc2NC(N)=O)cc1F [Compound 24, (1S,2R)-2-(((R)-(3-fluoro-4-isopropylphenyl)(2-ureidophenyl)methyl)carbamoyl)cyclopentane-1-carboxylic acid]		2.82 µM	92 µM
CC(C)c1ccc([C@@H](NC(=O)[C@@H]2CCC[C@@H]2C(=O)O)c2cccnc2N)cc1 [Compound 29, (1S,2R)-2-(((R)-(2-aminopyridin-3-yl)(4-isopropylphenyl)methyl)carbamoyl)cyclopentane-1-carboxylic acid]		1.52 µM	65.6 µM
CC(C)c1ccc([C@@H](NC(=O)[C@@H]2CCC[C@@H]2C(=O)O)c2cccc3c2NC(=O)C3)cc1 [Compound 30, (1S,2R)-2-(((R)-(4-isopropylphenyl)(2-oxoindolin-7-yl)methyl)carbamoyl)cyclopentane-1-carboxylic acid]		1.61 µM	31.3 µM
O=C(O)[C@H]1CCC[C@H]1C(=O)N[C@@H](c1ccccc1)c1ccc(C2CCC2)cc1 [Compound 34, (1S,2R)-2-(((S)-(4-cyclobutylphenyl)(phenyl)methyl)carbamoyl)cyclopentane-1-carboxylic acid]	67.1 µM	0.426 µM	
CC(C)c1ccc([C@@H](NC(=O)[C@@H]2CCC[C@@H]2C(=O)O)c2ccccc2)nc1 [Compound 36, (1S,2R)-2-(((S)-(5-isopropylpyridin-2-yl)(phenyl)methyl)carbamoyl)cyclopentane-1-carboxylic acid]	> 100 µM	0.837 µM	
CC(C)c1ccc([C@@H](NC(=O)[C@@H]2CCC[C@@H]2C(=O)O)c2ccccc2)cc1 [Compound 41, (1S,2R)-2-(((S)-(4-isopropylphenyl)(phenyl)methyl)carbamoyl)cyclopentane-1-carboxylic acid]	> 87.1 µM	0.637 µM	
CC(C)c1ccc([C@@H](NC(=O)[C@@H]2CCCC[C@@H]2C(=O)O)c2cccs2)cc1 [Compound 42, (1S,2R)-2-(((R)-(4-isopropylphenyl)(thiophen-2-yl)methyl)carbamoyl)cyclohexane-1-carboxylic acid]	> 77.6 µM	0.961 µM	

More lines, in order of falling IC50 (human GYS1), values ahead:

IC50 (human GYS2)	IC50 (human GYS1)	IC50 [1]	SMILES
	2.39 µM	> 100 µM	CC(C)c1ccc([C@@H](NC(=O)[C@@H]2CCC[C@@H]2C(=O)O)c2ccn[nH]2)cc1 [Compound 32, (1S,2R)-2-(((R)-(4-isopropylphenyl)(1H-pyrazol-5-yl)methyl)carbamoyl)cyclopentane-1-carboxylic acid]
> 100 µM	0.497 µM	8.49 µM	O=C(O)[C@H]1CCC[C@H]1C(=O)N[C@@H](c1ccccc1)c1ccc(C2CCC2)cn1 [Compound 15, (1S,2R)-2-(((S)-(5-cyclobutylpyridin-2-yl)(phenyl)methyl)carbamoyl)cyclopentane-1-carboxylic acid]
10.8 µM	0.39 µM		Cc1ccccc1[C@H](NC(=O)[C@@H]1CCC[C@@H]1C(=O)O)c1ccc(C(C)C)cc1 [Compound 40, (1S,2R)-2-(((R)-(4-isopropylphenyl)(o-tolyl)methyl)carbamoyl)cyclopentane-1-carboxylic acid]
28.6 µM	0.384 µM	16.6 µM	O=C(O)[C@H]1CCC[C@H]1C(=O)N[C@@H](c1ccccc1)c1ccc(C2CCC2)c(F)c1 [Compound 18, (1S,2R)-2-(((S)-(4-cyclobutyl-3-fluorophenyl)(phenyl)methyl)carbamoyl)cyclopentane-1-carboxylic acid]
> 100 µM	0.239 µM	3.93 µM	CC(C)c1c(F)cc([C@@H](NC(=O)[C@@H]2CCC[C@@H]2C(=O)O)c2ccccc2)cc1F [Compound 8, (1S,2R)-2-(((S)-(3,5-difluoro-4-isopropylphenyl)(phenyl)methyl)carbamoyl)cyclopentane-1-carboxylic acid]

Reference: patent US20260021085A1, “CYCLOALKYL CARBOXYLIC ACID DERIVATIVES AS INHIBITORS OF GLYCOGEN SYNTHASE 1 (GYS1) AND METHODS OF USE THEREOF” (Maze Therapeutics, Inc., priority 2022, published 2026)
